Two compounds from paper PMC8617031, “Development of a BCL-xL and BCL-2 dual degrader with improved anti-leukemic activity,” (Nature Communications, 2021) can be followed below.

“And” between values parts separate entries of the source, which are not always exact repeats. Equal values may be shown once.

In one assay the target is T1, BCL-xL (Homo sapiens, UniProt Q07817).
T1 construct: endogenous in cells
Briefly: BCL-xL degradation by immunoblot in 293T cells. It is filed as cell-based. Particulars: for normalized BCL-xL protein content: 293T, Supplementary Fig. 1b. The method, then:
(§1) The DC50 and Dmax were calculated using Prism based on the ImageJ-quantified western blots in Supplementary Fig. 4. c, d AlphaLISA assay to determine the formation of BCL-xL/PROTAC/VHL-ELOC-ELOB (VCB) (c) or BCL-2/PROTAC/VCB (d) ternary complex in a cell-free condition. Data represent the mean of a single experiment with 2 technical replicates. Similar results were obtained in one more independent experiment. e, f NanoBRET assays evaluating intracellular BCL-xL/PROTAC/VCB (e) or BCL-2/PROTAC/VCB (f) ternary complex formation. […] Data are expressed as mean ± s.e.m. of three biological replicates. Source data are provided as a Source data file.
(§2) Representative immunoblots are shown in (a–d) and β-actin was used as a loading control in all immunoblot analyses. The normalized protein content in the immunoblots is presented as mean values ± s.e.m. (n = 3 biologically independent experiments) in the bar graph (bottom panel). e, f The formation of BCL-xL/PROTAC/VCB (e) and BCL-2/PROTAC/VCB (f) ternary complexes in a cell-free condition was determined by AlphaLISA assay. Data represent the mean of a single experiment with 2 technical replicates. […] Source data are provided as a Source data file.
(§3) Cells were collected, washed once with ice-cold phosphate-buffered saline, pH 7.2 (PBS, cat. no. 20012027; Thermo Fisher Scientific) and lysed in RIPA lysis buffer (Cat. No. BP-115DG, Boston Bio Products, Ashland, MA, USA) supplemented with protease and phosphatase inhibitor cocktails (Cat. No. PPC1010, Sigma-Aldrich, St. Louis, MO, USA) through sonication. The samples were centrifuged at 14,000 r.p.m. for 5 min and the supernatants were transferred into a new tube. The protein concentration in the supernatants was determined using the Pierce BCA protein Assay kit (cat. no. 23225, Thermo Fisher Scientific). The protein concentration was normalized, and the samples were reduced in 4× Laemmli’s SDS-sample buffer (cat. no. BP-110R, Boston Bio Products) and denatured at 95 °C for 5 min. An equal amount of protein samples (20–40 μg per lane) were resolved using precast 4–20% Tris-glycine gels (Mini-PROTEAN TGX, cat. no. 456–1094, Bio-Rad), and resolved proteins were transferred onto 0.2-µm pore size polyvinylidene difluoride (PVDF) blotting membranes (cat. no. LC2002, Thermo Fisher Scientific) using mini trans-blot electrophoretic transfer cell (Bio-Rad). The membranes were blocked with non-fat dry milk (5% wt/vol) in 1× Tris-buffered saline-Tween-20 (TBST, cat. no. J77500, Affymetrix) for 1 h at room temperature, and were subsequently probed with primary antibodies at a predetermined optimal concentration in non-fat dry milk (5% wt/vol in TBST) overnight at 4 °C. The membranes were washed three times (5 min each) in TBST and then incubated with horse radish peroxidase (HRP)-conjugated secondary antibodies for 1 h at room temperature. Following sufficient washing with TBST, the membranes were exposed with chemiluminescent HRP substrate (cat. no. WBKLS0500, MilliporeSigma), and the signal was detected using the ChemiDoc MP Imaging System (Bio-Rad) and quantified using the ImageJ (v1.53a) software from NIH.

In the next assay the target is T2, BCL-2 (Homo sapiens, UniProt P10415).
T2 construct: endogenous in cells
T2 sequence (P10415 whole entry): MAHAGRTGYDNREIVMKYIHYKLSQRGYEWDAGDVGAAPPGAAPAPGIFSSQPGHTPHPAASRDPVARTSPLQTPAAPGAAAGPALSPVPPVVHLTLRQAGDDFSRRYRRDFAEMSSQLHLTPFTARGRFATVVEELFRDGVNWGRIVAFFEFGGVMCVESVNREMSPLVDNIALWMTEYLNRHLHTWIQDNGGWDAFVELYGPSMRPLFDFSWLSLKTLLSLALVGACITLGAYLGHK
Briefly: BCL-2 degradation by immunoblot in 293T cells. It is filed as cell-based. To be noted: for normalized BCL-2 protein content: 293T, 16 h, Supplementary Fig. 1b. The method, then: as §1, §2, §3

The target of assay [1] is T3, BCL-xL/PROTAC/VHL-ELOC-ELOB (VCB) ternary complex (Homo sapiens, UniProt P40337+Q07817).
T3 construct: pGEX-6P-1-VHL(54-213) (pDL2200) was constructed through Gibson assembly method; made in house; host or cells: bacterial culture (LB broth, IPTG induction)
T3 sequence (Q07817 1-212 limits assumed): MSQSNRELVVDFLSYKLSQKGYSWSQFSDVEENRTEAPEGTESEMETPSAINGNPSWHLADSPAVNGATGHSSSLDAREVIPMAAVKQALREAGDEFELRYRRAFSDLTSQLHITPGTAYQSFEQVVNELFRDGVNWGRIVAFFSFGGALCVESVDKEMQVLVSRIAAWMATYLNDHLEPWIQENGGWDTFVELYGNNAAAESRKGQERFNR
T3 sequence (P40337 54-213 limits assumed): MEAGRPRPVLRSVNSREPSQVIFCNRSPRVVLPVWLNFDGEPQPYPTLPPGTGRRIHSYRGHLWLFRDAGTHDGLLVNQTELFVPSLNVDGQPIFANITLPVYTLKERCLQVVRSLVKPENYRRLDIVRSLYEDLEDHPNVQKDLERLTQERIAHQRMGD
T3 sequence (Q15369 17-112 partner limits assumed): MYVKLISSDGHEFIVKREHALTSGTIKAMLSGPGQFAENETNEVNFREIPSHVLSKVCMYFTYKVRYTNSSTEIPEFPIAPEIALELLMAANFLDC
T3 sequence (Q15370 whole entry partner): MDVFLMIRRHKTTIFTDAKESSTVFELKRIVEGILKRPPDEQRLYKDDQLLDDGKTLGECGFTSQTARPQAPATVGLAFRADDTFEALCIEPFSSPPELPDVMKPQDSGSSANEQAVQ
Briefly: AlphaLISA ternary complex formation, cell-free, BCL-xL. It is filed as binding. Particulars: for AlphaLISA signal, BCL-xL/PROTAC/VCB: Fig. 2c raw Alpha reads. How it is done:
(§4) AlphaLISA assay was used to evaluate the in vitro ternary complex formation between target proteins (BCL-xL or BCL-2), PROTAC and E3 ligase (VCB complex). In each well, 5 nM His-tagged BCL-xL or BCL-2 proteins and 5 nM GST-VCB complex was incubated with varying concentrations of compounds in fourfold serial dilutions, to a final volume of 40 µl in a 96-well PCR plate. After incubation at room temperature for 30 min, 5 µl alpha glutathione-donor beads (Cat. No. 6765300, PerkinElmer) were added to each well (20 µg/ml final concentration) and incubated for another 15 min. Thereafter, 5 µL 6× His-acceptor beads were added to each well (20 µg/ml final concentration) and incubated for an additional 45 min at room temperature. Thereafter, 17 µl of each sample was transferred in adjacent wells of a 384-well proxy plate, and the plate was scanned using the Alpha program on Biotek’s Synergy Neo2 multimode plate reader. The data were expressed as average AlphaLISA signal and plotted against different concentrations of compounds using GraphPad Prism 9 software.
Background: Alpha assays give light when donor and acceptor beads are brought close together.

Assay [2] addresses T4, BCL-2/PROTAC/VCB ternary complex (Homo sapiens, UniProt P10415+P40337).
T4 construct: pGEX-6P-1-VHL(54-213) (pDL2200) was constructed through Gibson assembly method; made in house; host or cells: bacterial culture (LB broth, IPTG induction)
As to the kind of experiment: AlphaLISA ternary complex formation, cell-free, BCL-2. Format: binding. Particulars: for AlphaLISA signal, BCL-2/PROTAC/VCB: Fig. 2d raw Alpha reads. How it is done: as §4

In assay [3] the test system is BCL-xL/PROTAC/VCB ternary complex (HiBit-BCL-xL, HaloTag-VHL). As to the kind of experiment: NanoBRET intracellular ternary complex formation in 293T cells, BCL-xL. It is filed as cell-based, human. Particulars: NanoBRET, 293T cells, 6 h. The text has this:
(§5) Plasmids HaloTag-VHL (Cat. No. CS1679C155) and CMV HiBit (Cat. No. CS1956B03) were purchased from Promega. HiBit-BCL-xL and HiBit-BCL-2 were constructed previously. The two mutants (HiBit-BCL-xL-K157-only and HiBit-BCL-xL-K-ko) were constructed through Gibson assembly method. The primer pair (5′-[…]-3′ and 5′-[…]c[…]-3′) and the template Flag-BCL-xL-K157-only or Flag-BCL-xL-K-ko (pDL2129)[2] were used to clone the BCL-xL-K157-only-containing and BCL-xL-K-ko-containing fragments, respectively. The primer pair (5′-[…]g[…]-3′ and 5′-[…]-3′) and pBit3.1-N (Cat. No. N2361, Promega) were used to clone the vector-containing fragment. The PCR fragments were assembled using NEBuilder® HiFi DNA Assembly Master Mix (Cat. No. E2621, NEB, Ipswich, MA, USA). DNA sequences in all these plasmids were authenticated by automatic sequencing. […] After 24 h, 2 × 10^4 transfected cells were seeded into white 96-well tissue culture plates in Gibco™ Opti-MEM™ I Reduced Serum Medium, No Phenol Red (Cat. No. 11-058-021, Fisher) containing 4% FBS with or without HaloTag NanoBRET 618 Ligand (Cat. No. PRN1662, Promega) and incubated overnight at 37 °C, 5% CO2. The following day, serial diluted compounds were added into the medium and plates were incubated at 37 °C, 5% CO2, for 6 h. After treatment, NanoBRET Nano-Glo Substrate (cat. no. N1662, Promega) was added into the medium, and the contents were mixed by shaking the plate for 30 s before measuring donor and acceptor signals on Biotek plate reader. Dual-filtered luminescence was collected with a 450/50 nm bandpass filter (donor, NanoBiT-BCL-XL protein or NanoBiT-BCL-2 protein) and a 610-nm longpass filter (acceptor, HaloTag NanoBRET ligand) using an integration time of 0.5 s. mBRET ratios were calculated following the NanoBRET™ Nano-Glo® Detection System (Cat. No. N1662, Promega).

The subject of assay [4] is BCL-2/PROTAC/VCB ternary complex (HiBit-BCL-2, HaloTag-VHL). As to the kind of experiment: NanoBRET intracellular ternary complex formation in 293T cells, BCL-2. Format: cell-based, human. To be noted: NanoBRET, 293T cells, 6 h.
Excerpt: as §5
For orientation: BRET reads energy transfer from a luciferase to a nearby fluorophore.

Setting [5] is: compound 200000 nM, 2 technical replicates.

T1 sequence (Q07817 whole entry): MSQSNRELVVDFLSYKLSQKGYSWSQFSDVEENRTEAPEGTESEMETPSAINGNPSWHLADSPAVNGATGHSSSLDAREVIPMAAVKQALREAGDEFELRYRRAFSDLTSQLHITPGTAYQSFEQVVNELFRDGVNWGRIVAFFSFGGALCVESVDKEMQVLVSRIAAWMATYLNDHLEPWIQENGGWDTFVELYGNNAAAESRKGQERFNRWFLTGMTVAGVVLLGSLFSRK
T4 sequence (P10415 1-211 limits assumed): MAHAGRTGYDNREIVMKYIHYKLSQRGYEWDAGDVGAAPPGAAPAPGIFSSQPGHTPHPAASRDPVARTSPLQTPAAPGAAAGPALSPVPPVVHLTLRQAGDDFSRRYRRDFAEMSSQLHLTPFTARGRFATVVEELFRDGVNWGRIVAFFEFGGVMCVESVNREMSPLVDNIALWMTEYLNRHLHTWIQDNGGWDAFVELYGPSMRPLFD
T4 sequence (P40337 54-213 limits assumed): as the sequence (P40337 54-213 limits assumed) above
T4 sequence (Q15369 17-112 partner limits assumed): as the sequence (Q15369 17-112 partner limits assumed) above
T4 sequence (Q15370 whole entry partner): as the sequence (Q15370 whole entry partner) above

Take `Cc1ncsc1-c1ccc([C@H](C)NC(=O)[C@@H]2C[C@@H](O)CN2C(=O)[C@@H](NC(=O)CCCCCCCCCC(=O)N2CCN(CC3(C)CCC(c4ccc(Cl)cc4)=C(CN4CCN(c5ccc(C(=O)NS(=O)(=O)c6ccc(N[C@H](CCN7CCOCC7)CSc7ccccc7)c(S(=O)(=O)C(F)(F)F)c6)cc5)CC4)C3)CC2)C(C)(C)C)cc1` (stereo partly shown) [PPC11]: the Dmax at BCL-xL (HEK-293T) and at BCL-2 (HEK-293T) was 38% each time. Besides, the “in vitro ternary complex formation with BCL-xL (in words)” value in assay [1] (AlphaLISA, cell-free, Fig. 2c, 3e) was “much weaker ternary complexes”. Moreover, the “AlphaLISA signal, BCL-xL/PROTAC/VCB” value in assay [1] (compound 0.191 nM) was 14159 and 17511; in assay [1] (compound 0.763 nM), 19035 and 14403; in assay [1] (compound 3.052 nM), 18192 and 15524; in assay [1] (compound 12.207 nM), 16016 and 15699; in assay [1] (compound 48.828 nM), 18370 and 17440; in assay [1] (compound 195.31 nM), 28376 and 33281. Further, the “AlphaLISA signal, BCL-xL/PROTAC/VCB” value is 25822 and 27451 in assay [1] (compound 781.25 nM); 15301 and 22197 in assay [1] (compound 3125 nM); 15507 and 16950 in assay [1] (compound 12500 nM); 13057 and 15839 in assay [1] (compound 50000 nM); 17326 and 15566 in assay [1] (setting [5]). The “in vitro ternary complex formation with BCL-2 (in words)” value in assay [2] (AlphaLISA, cell-free, Fig. 2d, 3f) is listed as “much weaker ternary complexes”. Besides, the “AlphaLISA signal, BCL-2/PROTAC/VCB” value was 16751 and 14492 in assay [2] (compound 0.191 nM); 17062 and 15173 in assay [2] (compound 0.763 nM); 17477 and 13618 in assay [2] (compound 3.052 nM); 15016 and 16035 in assay [2] (compound 12.207 nM); 21071 and 20895 in assay [2] (compound 48.828 nM); 36395 and 36207 in assay [2] (compound 195.31 nM). Moreover, the “AlphaLISA signal, BCL-2/PROTAC/VCB” value in assay [2] (compound 781.25 nM) is 16303 and 18907; in assay [2] (compound 3125 nM), 17856 and 16482; in assay [2] (compound 12500 nM), 13061 and 15598; in assay [2] (compound 50000 nM) it was 10324 and 9718; in assay [2] (setting [5]), 13464 and 10765.

Consider `CN(CCOCCOCCOCCNc1cccc2c1C(=O)N(C1CCC(=O)NC1=O)C2=O)CC[C@H](CSc1ccccc1)Nc1ccc(S(=O)(=O)NC(=O)c2ccc(N3CCN(CC4=C(c5ccc(Cl)cc5)CCC(C)(C)C4)CC3)cc2)cc1S(=O)(=O)C(F)(F)F` (stereo partly shown) [XZ739, reference compound], for which, at BCL-xL (293T cells, 16 h), the “BCL-xL degradation (in words)” value was “could degrade BCL-xL”. The “normalized BCL-xL protein content” value on BCL-xL (16 h, XZ739 concentration 0.003 (unit not given), untreated = 100, 2 replicates) is 88 and 95; at BCL-xL (16 h, concentration 0.01), 85 and 86; at BCL-xL (16 h, concentration 0.03), 76 and 80; on BCL-xL (16 h, concentration 0.1) it was 67 and 65; at BCL-xL (16 h, concentration 0.3) it was 32 and 40; on BCL-xL (16 h, concentration 1), 32 and 31. Besides, at BCL-xL (16 h, concentration 3), the “normalized BCL-xL protein content” value is 22 and 19. Further, the “normalized BCL-2 protein content” value at BCL-2 (XZ739 concentration 0.003 (unit not given), untreated = 100, 2 replicates) was 116 and 103; at BCL-2 (concentration 0.01), 119 and 99; on BCL-2 (concentration 0.03) it was 113 and 104; at BCL-2 (concentration 0.1) it was 114 and 109; on BCL-2 (concentration 0.3), 119 and 101; on BCL-2 (concentration 1), 102 and 95. Also, at BCL-2 (concentration 3), the “normalized BCL-2 protein content” value is 97 and 102. Also, the “intracellular ternary complex formation with BCL-xL (in words)” value in assay [3] is “formed cellular ternary complexes with both BCL-xL and BCL-2”. Moreover, the “intracellular ternary complex formation with BCL-2 (in words)” value in assay [4] was “formed cellular ternary complexes with both BCL-xL and BCL-2”.
